The results in this text go back to paper PMC6305444, “Advancement of the 5-Amino-1-(Carbamoylmethyl)-1H-1,2,3-Triazole-4-Carboxamide Scaffold to Disarm the Bacterial SOS Response” (Frontiers in Microbiology, 2018).

Data set [1] concerns the target T1, E. coli FlAsH-LexA (RecA-promoted LexA cleavage) (Escherichia coli, UniProt P0A7C2). In words: biochemical.
Method: (§6) IC50 values were routinely determined using the E. coli FlAsH-LexA cleavage assay previously used to perform HTS ([Mo et al., 2018]). In this assay RecA-promoted LexA cleavage is monitored using fluorescence polarization. […] Reactions were performed in 384-well plates and components were added as 10 μL additions of ATPγS, ssDNA and RecA, in buffer and 10 μL of E. coli FlAsH-LexA in buffer using a Janus liquid handler (Perkin-Elmer). Compound was added as a DMSO solution using a pin tool, and the final concentration of DMSO in the reaction was 1.2%. Once the reaction components were combined, reactions were centrifuged for 1 min at 500 rpm and incubated for 30 min at room temperature. Reactions were quenched with a 10 μL addition of 50 mM EDTA and plates were read on a Tecan Infinite F200 Pro plate reader (Tecan US, Inc., Morrisville, NC, United States). […] On each plate 32 positive (-RecA) and 32 negative controls (+RecA) in which DMSO without compound was added were used to define the range of mP and calculate the fraction inhibited.
(§7) IC50 values were estimated by non-linear least squares fitting to the data using Equation 1.
(§8) where FI = Fraction inhibited, [I] = Concentration of compound and n = Hill coefficient. Fitting was performed using Igor Pro (WaveMetrics Inc., Lake Oswego, OR, United States).
Data set [2] is described as follows: Cytotoxicity testing with HG2 cells. It counts as cell-based.
The nature of data set [3]: Solubility (inferred from titration curves in assay buffer; DMSO stocks). Conditions: FlAsH-LexA cleavage assay buffer, aqueous buffer; suggested by normal titration curves in FlAsH-LexA assay buffer; read-out: aqueous solubility maintained up to. It counts as physicochemical. The text has this:
Representative titrations for the compounds can be found in the Supplementary Figure 1.

The target of data set [4] is T2, full length LexA from P. aeruginosa (RecA*-mediated cleavage) (Pseudomonas aeruginosa, UniProt P37452).
T2 construct: examining RecA^∗-mediated cleavage of full length LexA from P. aeruginosa; made in house
T2 sequence (P37452 whole entry): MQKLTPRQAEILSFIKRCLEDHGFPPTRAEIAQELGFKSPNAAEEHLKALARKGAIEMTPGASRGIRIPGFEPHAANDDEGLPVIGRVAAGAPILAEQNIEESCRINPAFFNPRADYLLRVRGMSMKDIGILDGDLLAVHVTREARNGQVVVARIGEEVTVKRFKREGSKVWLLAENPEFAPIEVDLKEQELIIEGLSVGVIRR
In words: Orthogonal 32P-LexA cleavage assay, full-length P. aeruginosa LexA. The class given is biochemical. How it is done:
(§1) Full-length E. coli and P. aeruginosa LexA were engineered with a RRXS phosphorylation site on the N-terminus of the full-length protein, allowing for ^32P labeling by protein kinase A to produce ^32P-LexA, as described previously ([Mo et al., 2018]). Reactions contained 100 nM ^32P-LexA, 200 nM RecA and 10 μM ATPγS and the buffer conditions were identical to those in the HTS assay. Compounds were added in DMSO and the final concentration was 2%. Reactions were incubated for 30 min at room temperature after which 2 × Laemmli buffer was added to stop the assay. The stopped reactions were subjected to 15% SDS-PAGE and the gels were visualized via phosphorimaging on a Typhoon imager (GE Healthcare Bio-Sciences, Marlborough, MA, United States). The intact and cleaved bands were quantified using Quantity One (Bio-Rad, Hercules, CA, United States) and the fraction inhibited was calculated. […] Plots of fraction inhibited against compound concentration were fitted to Equation 1.

Data set [5] addresses T1, E. coli FlAsH-LexA (RecA-promoted LexA cleavage). To be noted: for rank order of activities, ortho mono-substitution on area A phenyl: FlAsH-LexA cleavage assay; for activity in FlAsH-LexA cleavage assay (in words): highest concentration 111 μM.
Method: as §6, §7, §8
Data set [6] relates to ΔtolC E. coli. In words: Frequency of resistance (rifampin-resistance mutation rate). The class given is cell-based. Here is the method:
A starter culture of ΔtolC E. coli was cultured overnight at 37°C with shaking in LB broth. The next day the culture was diluted 3 × 10^7-fold in to LB broth. The dilution was used to produce four sets of twelve cultures, each containing 1 mL. To one set was added 10 μL of deionized H2O plus 10 μL of DMSO, to the second set was added 10 μL of 125 ng/mL ciprofloxacin in deionized H2O plus 10 μL of DMSO, to the third set was added 10 μL of deionized H2O plus 10 μL of a 10 mM solution of 14 in DMSO and to the fourth set was added 10 μL of 125 ng/mL ciprofloxacin in deionized H2O plus 10 μL of 14 in DMSO.
The 48 cultures were incubated at 37°C with shaking for 48 h. To determine the population size, spot plating was performed starting with 1 μL of the cultures diluted 10^5-fold. A 100 μL aliquot of each 10^5-fold dilution was transferred to a 96-well plate and serially diluted (10-fold dilutions) into LB broth. The dilutions (5 μL) were spotted on LB agar plates and the plates were incubated overnight at 37°C. To determine the rifampin resistant population, 999 μL of each 1 mL culture was centrifuged at 6000 rpm for 10 min to remove the cells from solution and the cells were suspended in 100 μL of autoclaved 0.15 M NaCl. The 100 μL solutions were plated on the LB plates containing 100 μg/mL rifampin and incubated for 2 days at 37°C. Following counting of the colonies the program bz-rates ([Gillet-Markowska et al., 2015]) was used to estimate mutation rates.

Data set [7] has as its target T3, full-length E. coli LexA (RecA*-induced cleavage) (Escherichia coli, UniProt P0A7C2).
T3 construct: Full-length E. coli and P. aeruginosa LexA were engineered with a RRXS phosphorylation site on the N-terminus of the full-length protein; made in house
In words: Orthogonal 32P-LexA cleavage assay, full-length E. coli LexA. The class given is biochemical. Here is the method: as §1

For data set [8], the target named is T4, full length E. coli LexA (Escherichia coli, UniProt P0A7C2).
T4 construct: a fluorescence-independent assay using a full-length version of E. coli LexA was employed; made in house
T4 sequence (P0A7C2 whole entry): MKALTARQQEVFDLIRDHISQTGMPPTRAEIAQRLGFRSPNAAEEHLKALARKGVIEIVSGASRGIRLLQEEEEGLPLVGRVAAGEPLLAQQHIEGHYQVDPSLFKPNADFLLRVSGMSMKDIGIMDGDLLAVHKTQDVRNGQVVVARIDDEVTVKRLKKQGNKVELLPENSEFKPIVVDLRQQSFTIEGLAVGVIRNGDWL
The experiment in a line: Auto-proteolysis of 32P-labelled full length E. coli LexA in the absence of RecA. The class given is biochemical. Here is the method: (§2) Supplementary Figure 2. Binding of 14 to LexA alone. (a) Inhibition of the auto-proteolysis of 32P-labelleled full length E. coli LexA by 14 in the absence of RecA. All data represent the mean of two independent measurements and the error bars represent the range of error. The error of the IC50 value is the standard deviation of the fit of equation 1 to the data. (b) Thermal shift observed upon binding of 14 to full length E. coli LexA. The concentrations of LexA and 14 were 5 µM and 50 µM, respectively. The errors for the Tm values are the standard deviations of the fits of equation S1 to the data.
(§3) Cy5-labeled operator DNA Bound DNA
(§4) Supplementary Figure 3. LexA DNA binding activity is not impacted by 14. Varying concentrations of […]
(§5) (SOS box). The titrations were performed in the presence of DMSO or 40 μM of 14. The samples were separated on a non-denaturing polyacrylamide gel (at right) and the bound fraction calculated. […]

Data set [9] has as its target T4, full length E. coli LexA. The experiment in a line: Thermal shift assay of LexA. Conditions: LexA 5 µM, compound 50 µM; LexA alone Tm 57.4 ± 0.4. The class given is binding. Here is the method: as §2, §3, §4, §5
In data set [10] the test system is recA promoter GFP reporter (SOS response). The experiment in a line: Cell-based SOS reporter assay (GFP under recA promoter, ciprofloxacin-induced). Set-up: species or system E. coli MG1655 ΔsulA ΔtolC. To be noted: Escherichia coli, 2 h, read-out: IC50, GFP assay. How it is done:
An E. coli MG1655 strain lacking sulA (ΔsulA) and the tolC transporter (ΔtolC) ([Mo et al., 2016]) was transformed with a reporter plasmid in which gfp expression was under the control of the recA promoter (pMS201 pRecA GFP) ([Zaslaver et al., 2006]). To perform assays overnight, cultures of the reporter strain were diluted 100-fold in M9 minimal media and grown at 37°C with agitation to an OD595 of ∼0.6. For each reaction sample 100 μL of culture were mixed with 100 μL of M9 minimal media containing ciprofloxacin (256 ng/mL). Pre-diluted compounds were added (5 μL) in DMSO and cultures were incubated at 37°C with agitation for 2 h after which the cells were fixed by adding 200 μL of phosphate buffered saline, pH 7.4 containing 1% paraformaldehyde. After 1 h of fixing, the cells were spun down at 4,000 rpm and re-suspended in phosphate buffered saline, pH 7.4. Fixed cells were analyzed using flow cytometry (BD FACSCalibur, Ex/Em: 488 nm/530 nm) and the mean fluorescence of 20,000 cells in each condition was recorded.
In general terms: A reporter such as luciferase makes a cellular process visible.

Data set [11] deals with T5, LexA-S119A / Cy5-labeled SOS operator DNA (Escherichia coli, UniProt P0A7C2, S119A).
T5 construct: made in house
T5 sequence (P0A7C2 whole entry S119A): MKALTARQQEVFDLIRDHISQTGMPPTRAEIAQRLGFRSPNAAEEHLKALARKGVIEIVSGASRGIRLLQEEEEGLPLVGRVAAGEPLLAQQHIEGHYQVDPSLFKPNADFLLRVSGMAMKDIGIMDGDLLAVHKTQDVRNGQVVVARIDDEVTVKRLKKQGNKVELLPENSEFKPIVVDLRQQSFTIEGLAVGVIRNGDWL
The experiment in a line: Electrophoretic mobility shift assay (EMSA), LexA binding to SOS operator DNA. To be noted: compound vs DMSO. How it is done: Increasing concentrations (0–1 μM) of LexA-S119A were mixed with 10 nM SOS operator DNA labeled with Cy5 in EMSA running buffer (70 mM Tris-HCl pH 7.5, 10 mM MgCl2, 150 mM NaCl, 5 mM DTT, 0.1 mg/ml BSA, 10 ng/μL ssDNA, 5% glycerol, 0.04% bromophenol blue) in the presence of 50 μM of compound (or DMSO carrier). After incubation at room temperature for 30 min, 20 μL of each reaction was subjected to 6% native PAGE. Gels were visualized on a Typhoon Imager using default fluorescence filter settings for Cy5. Gel bands were quantified using ImageJ (NIH, Bethesda, MD, United States) to determine the fraction of bound DNA at each LexA concentration. Data were fitted to a variable-slope sigmoidal dose-response curve.

Data set [12] concerns ΔtolC E. coli. In words: MIC of ciprofloxacin. It counts as cell-based. Conditions: Escherichia coli.

T1 sequence (P0A7G6 2-353): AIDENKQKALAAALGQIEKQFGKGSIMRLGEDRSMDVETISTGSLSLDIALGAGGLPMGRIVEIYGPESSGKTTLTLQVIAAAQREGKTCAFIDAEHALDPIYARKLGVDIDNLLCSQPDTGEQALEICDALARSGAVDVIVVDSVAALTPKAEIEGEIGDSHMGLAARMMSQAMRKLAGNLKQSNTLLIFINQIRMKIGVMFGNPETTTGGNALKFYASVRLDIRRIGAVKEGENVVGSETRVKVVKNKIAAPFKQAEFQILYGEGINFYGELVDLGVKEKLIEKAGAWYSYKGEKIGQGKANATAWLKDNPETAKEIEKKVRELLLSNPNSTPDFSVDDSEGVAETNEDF
T1 sequence (P0A7C2 75-202): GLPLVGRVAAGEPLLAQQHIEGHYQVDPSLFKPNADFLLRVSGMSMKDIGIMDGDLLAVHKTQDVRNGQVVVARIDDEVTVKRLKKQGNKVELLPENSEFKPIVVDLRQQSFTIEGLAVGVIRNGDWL
T3 sequence (P0A7C2 whole entry): as the sequence (P0A7C2 whole entry) above

What is called IC50 is the point on the concentration scale where inhibition reaches its midpoint. A word on the CC50: it is the concentration that lowers cell viability or growth by half. Usually solubility stands for the dissolved amount per volume that the medium holds. Turning to `CCOc1ccc(NC(=O)Cn2nnc(C(=O)Nc3ccc(C)c(C)c3)c2N)cc1` [Compound 1], the concentration for half-maximal inhibition (IC50) in [1] was 32 ± 6 µM; in data set [4], 130 ± 28 µM. Besides, the CC50 in data set [2] came to 277 µM. Further, the solubility in data set [3] is at least 111 µM.

In [1], `Cc1ccc(NC(=O)c2nnn(CC(=O)Nc3ccccc3)c2N)cc1C` [Compound 2] had an IC50 above 100 µM. Besides, in data set [5], the “rank order of activities, ortho mono-substitution on area A phenyl” value is “Me (5) > Et (22) > OMe (23) > OEt (24) = H (2)” and the “activity in FlAsH-LexA cleavage assay (in words)” value (from here on “activity”) was “loss of activity”.

As for `Cc1ccc(NC(=O)c2nnn(CC(=O)NC3CCCCC3)c2N)cc1C` [Compound 3], in [1], the IC50 turned out to be 44 ± 4 µM. Further, in data set [3], the solubility is at least 111 µM. For the same compound, the “activity” value in [5] is “returned activity”.

On to `Cc1ccc(NC(=O)c2nnn(CC(=O)NC3CCCCCC3)c2N)cc1C` [Compound 4], for which, in data set [1], inhibition was half-maximal at 22 ± 3 µM (IC50). Besides, in data set [3], the solubility was at least 111 µM. Also, the “activity” value in data set [5] is reported as “returned activity”.

`Cc1ccc(NC(=O)c2nnn(CC(=O)Nc3ccccc3C)c2N)cc1C` [Compound 5] gave a half-maximal inhibitory concentration (IC50) in data set [1] of 17 ± 2 µM. For the same compound, the solubility in [3] was at least 111 µM. Further, the “rank order of activities, ortho mono-substitution on area A phenyl” value in data set [5] is listed as “Me (5) > Et (22) > OMe (23) > OEt (24) = H (2)”.

`Cc1cccc(NC(=O)Cn2nnc(C(=O)Nc3ccc(C)c(C)c3)c2N)c1` [Compound 6]: the 50% inhibitory concentration (IC50) in data set [1] is above 100 µM. In [5], the “activity” value is “not tolerated”.

In the case of `Cc1ccc(NC(=O)Cn2nnc(C(=O)Nc3ccc(C)c(C)c3)c2N)cc1` [Compound 7], in data set [1], the IC50 was found to be 18 ± 1 µM. The solubility in data set [3] was at least 111 µM.

In data set [1], `Cc1ccc(NC(=O)Cn2nnc(C(=O)Nc3ccc(C)c(C)c3)c2N)c(C)c1` [Compound 8] gave a half-inhibitory concentration (IC50) of 15 ± 2 µM. The solubility in data set [3] was at least 111 µM. For the same compound, the “activity” value in data set [5] is listed as “tolerated but not significantly superior to ortho-substitution alone”.

As to `CCOc1ccc(NC(=O)Cn2nnc(C(=O)Nc3ccccc3C)c2N)cc1` [Compound 9], the IC50 in data set [1] was above 100 µM. For the same compound, the “activity” value in [5] is “not tolerated”.

`CCOc1ccc(NC(=O)Cn2nnc(C(=O)Nc3cccc(C)c3)c2N)cc1` [Compound 10] registered a 50% inhibitory concentration (IC50) in data set [1] of 33 ± 4 µM. The solubility in data set [3] was at least 111 µM. Besides, the “activity” value in data set [5] is recorded as “allowed”.

Compound `CCOc1ccc(NC(=O)Cn2nnc(C(=O)Nc3ccc(C)cc3)c2N)cc1` [Compound 11] displayed an IC50 in data set [1] of 15 ± 2 µM. Further, the solubility in data set [3] is at least 111 µM. In data set [5], the “activity” value was “allowed”.

`CCOC(=O)c1ccc(NC(=O)c2nnn(CC(=O)Nc3ccc(OCC)cc3)c2N)cc1` [Compound 12] gave an IC50 in data set [1] of 19 ± 3 µM. The solubility in [3] is at least 111 µM. Also, in data set [5], the “activity” value is reported as “tolerated”.

In the case of `CCOc1ccc(NC(=O)Cn2nnc(C(=O)Nc3cccnc3)c2N)cc1` [Compound 13], 40 ± 3 µM corresponded to half-maximal inhibition in [1] (IC50). In addition, the solubility in [3] was at least 111 µM. Moreover, the “activity” value in data set [5] is recorded as “tolerated”.

As a reminder, the Tm is the temperature at the midpoint of the melting transition. As to `CCOc1ccc(NC(=O)Cn2nnc(C(=O)Nc3ccccc3)c2N)cc1` [Compound 14, 5-amino-1-{2-[(4-ethoxyphenyl)amino]-2-oxoethyl}-N-phenyl-1H-1,2,3-triazole-4-carboxamide], the “suppression of ciprofloxacin-induced appearance of resistance to rifampicin” value with ΔtolC E. coli [6] (100 μM compound) was “effective in reducing the appearance of resistance to rifampicin”. Also, the “decrease in per generation mutation rate relative to ciprofloxacin alone” value in the data set with ΔtolC E. coli [6] (100 μM compound + ciprofloxacin 1.25 ng/mL, rifampin resistance, 48 h) is listed as “approximately threefold”. Also, the “mutation rate, compound alone” value in the data set on ΔtolC E. coli [6] (100 μM compound, no ciprofloxacin) is given as “comparable to DMSO alone controls”. Moreover, the IC50 came out at 10 ± 1 µM in data set [7]; 15.2 ± 2.5 µM on full length E. coli LexA [8]; 9 ± 1 µM in [1]; 5.9 ± 0.4 µM in data set [4]; 32 ± 2 µM in data set [10]. The compound also showed a half-maximal cytotoxic concentration (CC50) in data set [2] above 500 µM. Further, the Tm on full length E. coli LexA [9] is 67.0 ± 0.1 °C. Besides, the solubility in [3] was at least 111 µM. In data set [11], the “effect on LexA DNA binding (EMSA)” value is recorded as “not impacted”.

One may read the MIC as the lowest concentration that inhibits growth of the organism. For `O=C(O)c1cn(C2CC2)c2cc(N3CCNCC3)c(F)cc2c1=O` [ciprofloxacin, reference compound], the “mutation rate, ciprofloxacin alone” value in the data set with ΔtolC E. coli [6] (sub-MIC concentration 1.25 ng/mL) is recorded as “produced an induction of mutagenesis”. The MIC in the data set on ΔtolC E. coli [12] was determined as 5 ng/mL.
